Experimental data as given in patent US20040152191A1 (priority 2001, published 2004).

Key:
Assay type in all cases: cell-based
Langerhans cells = test: Differentiation of Langerhans cells from cord blood CD34+ cells (Example 4); settings: D12; GM-CSF with TNF-α 2.5 ng/ml or RU 41740 10 μg/ml for 12 days
Excerpt: The stem cells are obtained after a passage of cord blood through a Ficoll gradient. The mononucleated CD34+ cells are purified by positive selection with an anti-CD34 monoclonal antibody (Immu 133.3, Immunotech Marseille, France). After purification, more than 90% of the cells are CD34+.
At the end of the culture period at D12, the cells are labelled with the anti-CD1a, CD14, Lag, E-cadherin, DR and DQ antibodies so as to identify the Langerhans cells which are Lag+, CD1a+, CD14−, DR+ and DQ+.

[1] = tested on: dendritic cells derived from human monocytes; test: Maturation of dendritic cells from human monocytes, surface markers by flow cytometry (Example 1); settings: D8, TNF-alpha 200 IU/ml
Protocol: Peripheral blood is taken from the subject concerned. This blood is then centrifuged for 20 minutes at 200 g so as to diminish the contamination of the peripheral blood cells by platelets. The upper part containing most of the platelets and the plasma is carefully removed before the mononucleated cells are purified by centrifuging them on a Ficoll separation gradient, the density of which is 1.077. The layer of mononucleated cells is recovered, then washed twice with PBS buffer and deposited on a gradient containing 4 discontinuous densities of Percoll in order to isolate the monocytes. This gradient is constituted by concentrations of Percoll in isotonic solution of 75% (6.5 ml), 50.5% (15 ml), 40% (3.5 ml) and 30% (3 ml) in a Dulbecco medium without magnesium nor calcium and containing 5% human serum. 75 to 100 millions of cells are thus deposited in each tube and centrifuged at 1000 g during 25 minutes at 4° C. The low density cells, principally the monocytes, are harvested at the interface between the concentrations 40% and 50.5%, and washed twice with PBS. They are then resuspended in a culture medium, then deposited on culture plates containing 6 wells at a density of 5×10^6 cells per well in a final volume of 3 ml and left to adhere for 1 hour at 37° C. This adhesion step can be replaced by an additional purification of the monocytes by means of a negative purification system using a mixture of monoclonal antibodies combining an anti-CD3, CD7, CD19, CD45A, CD56 and anti-IgG with the aid of a Macs type microbead system (Miltenyi Biotec).
The cells are then placed in culture in culture wells at 37° C. under 5% CO2. The medium which consists of RPMI contains 200 IU/ml of recombinant human GM-CSF and 500 IU/ml of recombinant human IL-4 in a final volume of 6 ml. On day 3 and day 5, the cultures are renewed by removing 3 ml and adding 3 ml of fresh medium with the cytokines. […] The cells are harvested on day 8, washed and cultivated in the absence of stimulation for a further 3 days.
At the end of the culture period, the quality of the maturation is assessed by measuring the expression of the molecules CD80, 83, 86, 14, 1a, HLA-DR at the surface of the cells.

[2] = tested on: human hematopoietic CD34+ stem cells; test: Production of dendritic cells from human hematopoietic CD34+ stem cells, cell markers (Example 2); settings: TNF-α 2.5 ng/ml or RU 41740 6.25 ng/ml from D0 to D5
Protocol: Purification: After Ficoll, the CD34+ represented 4.2% of the mononucleated cells (MNC).
After purification by positive selection with the MAC System procedure (Miltenyi Biotec) with beads coated with an anti-CD34 antibody, 90% of the cells are CD34+.
Culture Medium: RPMI containing 10% of FCS, 2% of penicillin/streptomycin, 1% of glutamine and 1% of sodium bicarbonate.
Culture in 2 ml wells with 5×10^5 cells per well. from D0 to D5: […] at 25 ng/ml, GM-CSF at 100 ng/ml and either TNF-α at 2.5 ng/ml […]
from D5 to D14: GM-CSF at 100 ng/ml
Duplication of the Cultures: -the cells are homogenized in the well, then 1 ml sample is taken and deposited in a fresh well. 1 ml of culture medium is then added to the fresh well and the old one, as well as GM-CSF as a function of the medium added.
A fluorescence-labelled anti-KLH primary antibody was used as control in order to be able to subtract the non-specific fluorescence of the signals obtained.

TNF-α
CD1a+ DR+ cells (Langerhans cells): 8% | Lag+ DR+ cells (Langerhans cells): 5.2% | CD14, % of labelled cells ([1]; experiment a): 0.87% | CD40, MFI ([1]; experiment a): 1603 | CD54, % of labelled cells ([1]; experiment a): 97.4% | CD54, MFI ([1]; experiment a): 295 | CD80, % of labelled cells ([1]; experiment a): 62.1% | CD80, MFI ([1]; experiment a): 129 | CD83, % of labelled cells ([1]; experiment a): 84.5% | CD83, MFI ([1]; experiment a): 173 | CD86, % of labelled cells ([1]; experiment a): 98.8% | CD86, MFI ([1]; experiment a): 326 | HLA-DQ, % of labelled cells ([1]; experiment a): 84.3% | HLA-DQ, MFI ([1]; experiment a): 157 | HLA-DR, % of labelled cells ([1]; experiment a): 98.9% | HLA-DR, MFI ([1]; experiment a): 1225 | CD1a, % of labelled cells ([1]; experiment b): 0.21% | CD14, % of labelled cells ([1]; experiment b): 0.61% | CD40, % of labelled cells ([1]; experiment b): 99.6% | CD40, MFI ([1]; experiment b): 1728 | CD54, % of labelled cells ([1]; experiment b): 95.6% | CD54, MFI ([1]; experiment b): 255 | CD80, % of labelled cells ([1]; experiment b): 70.5% | CD80, MFI ([1]; experiment b): 93.5 | CD83, % of labelled cells ([1]; experiment b): 89.5% | CD83, MFI ([1]; experiment b): 196 | CD86, % of labelled cells ([1]; experiment b): 99.5% | CD86, MFI ([1]; experiment b): 273 | HLA-DQ, % of labelled cells ([1]; experiment b): 84.2% | HLA-DQ, MFI ([1]; experiment b): 183 | HLA-DR, % of labelled cells ([1]; experiment b): 99.1% | HLA-DR, MFI ([1]; experiment b): 946 | CD14, % of labelled cells ([1]; experiment c): 3.27% | CD40, % of labelled cells ([1]; experiment c): 99.3% | CD40, MFI ([1]; experiment c): 1480 | CD54, % of labelled cells ([1]; experiment c): 98.2% | CD54, MFI ([1]; experiment c): 249 | CD83, % of labelled cells ([1]; experiment c): 89% | CD83, MFI ([1]; experiment c): 166 | CD86, % of labelled cells ([1]; experiment c): 99.5% | CD86, MFI ([1]; experiment c): 284 | HLA-DR, % of labelled cells ([1]; experiment c): 99.4% | HLA-DR, MFI ([1]; experiment c): 694 | CD1a, percentage of cells expressing the marker ([2]; D8): 8.7% | CD14, percentage of cells expressing the marker ([2]; D8): 40% | CD34, percentage of cells expressing the marker ([2]; D8): 0.7% | CD40, percentage of cells expressing the marker ([2]; D8): 44% | CD45, percentage of cells expressing the marker ([2]; D8): 96% | CD54, percentage of cells expressing the marker ([2]; D8): 33% | CD83, percentage of cells expressing the marker ([2]; D8): 0.5% | CD86, percentage of cells expressing the marker ([2]; D8): 13% | HLA-DR, percentage of cells expressing the marker ([2]; D8): 88% | CD1a, percentage of cells expressing the marker ([2]; D12): 8.4% | CD14, percentage of cells expressing the marker ([2]; D12): 63.2% | CD40, percentage of cells expressing the marker ([2]; D12): 64.3% | CD54, percentage of cells expressing the marker ([2]; D12): 61.8% | CD80, percentage of cells expressing the marker ([2]; D12): 5.3% | CD83, percentage of cells expressing the marker ([2]; D12): 1.3% | CD86, percentage of cells expressing the marker ([2]; D12): 7.4% | HLA-DQ, percentage of cells expressing the marker ([2]; D12): 54.1% | HLA-DR, percentage of cells expressing the marker ([2]; D12): 80.3% | CD1a, percentage of cells expressing the marker ([2]; D14): 10.3% | CD14, percentage of cells expressing the marker ([2]; D14): 54.1% | CD83, percentage of cells expressing the marker ([2]; D14): 0.8% | CD86, percentage of cells expressing the marker ([2]; D14): 2.2% | HLA-DR, percentage of cells expressing the marker ([2]; D14): 69.9%
